Among the data in patent US8658644B2, “Pyridazine derivatives, processes for their preparation and their use as fungicides” (Syngenta Crop Protection, LLC, priority 2011, dated 2014) are inhibition and melting point values, retold here.

Series [1] concerns Mycosphaerella graminicola (Septoria tritici). The series can be described thus: Mycosphaerella graminicola (Septoria tritici) / wheat / preventive. The series is classed as in vivo. The following applies: Zymoseptoria tritici, wheat plants cv. Riband, inoculated one day after application, leaf area covered by disease 16 to 19 days after application, read-out: inhibited fungal infestation. Here is the method: Mycosphaerella graminicola (Septoria tritici)/Wheat/Preventive (Action Against Septoria Leaf Spot on Wheat) 2-week old wheat plants cv. Riband were treated with the formulated test compound in a spray chamber. The test plants were inoculated by spraying a spore suspension on them one day after application. After an incubation period of 1 day at 22° C./21° C. (day/night) and 95% rh, the test plants were kept at 22° C./21° C. (day/night) and 70% rh in a greenhouse. The percentage leaf area covered by disease is assessed when an appropriate level of disease appears on untreated check plants (16 to 19 days after application).

For a further series, the system named is Alternaria Solani. Kind of series: Alternaria solani / tomato / preventative. The format is in vivo. The following applies: tomato plants cv. Roter Gnom, inoculated two days after application, leaf area covered by disease 5 to 7 days after application, read-out: inhibited fungal infestation. As for the experimental part:
Alternaria Solani/Tomato/Preventative (Action Against Alternaria on Tomato) 4-week old tomato plants cv. Roter Gnom were treated with the formulated test compound in a spray chamber. The test plants were inoculated by spraying them with a spore suspension two days after application. The inoculated test plants were incubated at 22/18° C. (day/night) and 95% rh in a greenhouse and the percentage leaf area covered by disease was assessed when an appropriate level of disease appears on untreated check plants (5 to 7 days after application).

Series [2] has as its system Magnaporthe grisea (Pyricularia oryzae). Kind of series: whole plant or invertebrate. The series is classed as in vivo. As to conditions: read-out: inhibited fungal infestation.
Series [3] concerns Mycosphaerella graminicola (Septoria tritici). Kind of series: Mycosphaerella graminicola (Septoria tritici) / wheat / curative. The format is in vivo. The following applies: Zymoseptoria tritici, wheat plants cv. Riband, treated 5 days after inoculation, leaf area covered by disease 11 to 14 days after application, read-out: inhibited fungal infestation. Here is the method: Mycosphaerella graminicola (Septoria tritici)/Wheat/Curative (Action Against Septoria Leaf Spot on Wheat) 2-week old wheat plants cv. Riband are inoculated by spraying them with a spore suspension. After an incubation period of 2 days at 22° C./21° C. (day/night) and 95% rh, the test plants are kept at 22° C./21° C. (day/night) and 70% rh in a climate chamber. The inoculated test plants are treated with the formulated test compound in a spray chamber 5 days after inoculation. The percentage leaf area covered by disease is assessed when an appropriate level of disease appears on untreated check plants (11 to 14 days after application).

Series [4] concerns Pyrenophora teres (Helminthosporium teres). Kind of series: Pyrenophora teres (Helminthosporium teres) / barley / preventative. The series is classed as in vivo. The following applies: barley plants cv. Regina, inoculated 2 days after application, leaf area covered by disease 5 to 7 days after application, read-out: inhibited fungal infestation. Here is the method:
Pyrenophora teres (Helminthosporium teres)/Barley/Preventative (Action Against Net Blotch on Barley) 1-week old barley plants cv. Regina were treated with the formulated test compound in a spray chamber. The test plants were inoculated by spraying them with a spore suspension 2 days after application. The inoculated test plants were incubated at 20° C. and 95% rh and the percentage leaf area covered by disease was assessed when an appropriate level of disease appears on untreated check plants (5 to 7 days after application).

Series [5] relates to Botryotinia fuckeliana (Botrytis cinerea). The series can be described thus: Botryotinia fuckeliana (Botrytis cinerea) / tomato / preventative. The format is in vivo. The following applies: tomato plants cv. Roter Gnom, inoculated two days after application, leaf area covered by disease 5 to 6 days after application, read-out: inhibited fungal infestation. Here is the method:
Botryotinia fuckeliana (Botrytis cinerea)/Tomato/Preventative (Action Against Botrytis on Tomato) 4-week old tomato plants cv. Roter Gnom were treated with the formulated test compound in a spray chamber. The test plants were inoculated by spraying them with a spore suspension two days after application. The inoculated test plants were incubated at 20° C. and 95% rh in a greenhouse and the percentage leaf area covered by disease is assessed when an appropriate level of disease appears on untreated check plants (5 to 6 days after application).

Series [6] deals with Erysiphe necator (Uncinula necator). The series can be described thus: Erysiphe necator (Uncinula necator) / grape / preventative. The series is classed as in vivo. The following applies: grape seedlings cv. Gutedel, inoculated 1 day after application, leaf area covered by disease 7 to 9 days after application, read-out: inhibited fungal infestation. Here is the method: Erysiphe necator (Uncinula necator)/Grape/Preventative (Action Against Powdery Mildew on Grape) 5-week old grape seedlings cv. Gutedel were treated with the formulated test compound in a spray chamber. The test plants are inoculated by shaking plants infected with grape powdery mildew above them 1 day after application. The inoculated test plants were incubated at 24/22° C. (day/night) and 70% rh under a light regime of 14/10 h (light/dark) and the percentage leaf area covered by disease was assessed when an appropriate level of disease appears on untreated check plants (7 to 9 days after application).

The next series has as its system Puccinia recondita. The series can be described thus: Puccinia recondita / wheat / preventative. The series is classed as in vivo. As to conditions: wheat plants cv. Arina, inoculated one day after application, leaf area covered by disease 12 to 14 days after application, read-out: inhibited fungal infestation. As for the experimental part: Puccinia recondita/Wheat/Preventative (Action Against Brown Rust on Wheat) 2-week old wheat plants cv. Arina were treated with the formulated test compound in a spray chamber. The test plants were inoculated by spraying them with a spore suspension one day after application. After an incubation period of 1 day at 20° C. and 95% rh, the test plants were kept at 20° C./18° C. (day/night) and 60% rh in a greenhouse. The percentage leaf area covered by disease was assessed when an appropriate level of disease appears on untreated check plants (12 to 14 days after application).

One may read the melting point as the temperature of the solid-liquid transition. For `C#Cc1ccc(-c2c(C)nnc(OC)c2-c2c(F)cc(OC)cc2F)cc1` [Compound 4, 4-(2,6-difluoro-4-methoxyphenyl)-5-(4-ethynylphenyl)-3-methoxy-6-methylpyridazine], the melting point fell in the range of 192 to 193 °C. For the same compound, the inhibition at 200 ppm in series [1] is not below 80%. Also, in the series on Alternaria Solani, the inhibition at 200 ppm is not below 80%. The inhibition at 200 ppm in [2] was not below 80%. Besides, the inhibition at 200 ppm in series [3] was not below 80%. The inhibition at 200 ppm in series [4] was not below 80%. Besides, the inhibition at 200 ppm in series [5] is not below 80%.
`C#Cc1ccc(-c2c(C)nnc(Cl)c2-c2c(F)cc(F)cc2F)cc1` [Compound 2, 3-chloro-5-(4-ethynylphenyl)-6-methyl-4-(2,4,6-trifluorophenyl)pyridazine] yielded a melting point of 174 to 175 °C. In addition, the inhibition at 200 ppm in [1] was not below 80%. Moreover, in the series with Alternaria Solani, the inhibition at 200 ppm is not below 80%. Also, the inhibition at 200 ppm in [6] was not below 80%. The inhibition at 200 ppm in series [2] is not below 80%. The inhibition at 200 ppm in [3] was not below 80%. In addition, the inhibition at 200 ppm in series [4] is not below 80%. In the series with Puccinia recondita, the inhibition at 200 ppm is not below 80%. For the same compound, the inhibition at 200 ppm in [5] was not below 80%.
Compound `C#Cc1ccc(-c2c(C)n[nH]c(=O)c2-c2c(F)cc(F)cc2F)cc1` [Compound 1, 5-(4-ethynylphenyl)-6-methyl-4-(2,4,6-trifluorophenyl)-2H-pyridazin-3-one] yielded a melting point of 252 to 254 °C.
